Type in all cases: biochemical
Holding throughout (settings): Caliper assay at 1 mM ATP

The target in assay [1] is JAK1 (Homo sapiens (Human), UniProt P23458). The assay can be described thus: JAK Caliper Enzyme Assay at 1 mM ATP (JAK1). The procedure: (§1) JAK Caliper Enzyme Assay at 1 mM ATP
(§2) Test article was solubilized in dimethyl sulfoxide (DMSO) to a stock concentration of 30 mM. An 11-point half log dilution series was created in DMSO with a top concentration of 600 μM. […] The compound plates were diluted 1 to 60 resulting in a top final assay compound concentration of 10 μM and a 2% DMSO concentration.
(§3) Test article and assay controls were added to a 384-well plate. Reaction mixtures contained 20 mM HEPES, pH 7.4, 10 mM magnesium chloride, 0.01% bovine serum albumin (BSA), 0.0005% Tween 20, 1 mM ATP and 1 μM peptide substrate. […] Enzyme concentrations and incubation times were optimized for each new enzyme preps and were modified slightly over time to ensure 20%-30% phosphorylation. The assays were stopped with a final concentration of 10 mM EDTA, 0.1% Coating Reagent and 100 mM HEPES, pH=7.4. The assay plates were placed on a Caliper Life Science Lab Chip 3000 (LC3000) instrument, and each well was sampled using appropriate separation conditions to measure the unphosphorylated and phosphorylated peptide.

Assay [2] has as its target JAK3 (Homo sapiens (Human), UniProt P52333). The assay can be described thus: JAK Caliper Enzyme Assay at 1 mM ATP (JAK3). The procedure:
as §1, §2, §3

For assay [3], the target named is TYK2 (Homo sapiens (Human), UniProt P29597). The assay can be described thus: JAK Caliper Enzyme Assay at 1 mM ATP (TYK2). The procedure: as §1, §2, §3
Sequence of TYK2 (P29597 whole entry, species assumed): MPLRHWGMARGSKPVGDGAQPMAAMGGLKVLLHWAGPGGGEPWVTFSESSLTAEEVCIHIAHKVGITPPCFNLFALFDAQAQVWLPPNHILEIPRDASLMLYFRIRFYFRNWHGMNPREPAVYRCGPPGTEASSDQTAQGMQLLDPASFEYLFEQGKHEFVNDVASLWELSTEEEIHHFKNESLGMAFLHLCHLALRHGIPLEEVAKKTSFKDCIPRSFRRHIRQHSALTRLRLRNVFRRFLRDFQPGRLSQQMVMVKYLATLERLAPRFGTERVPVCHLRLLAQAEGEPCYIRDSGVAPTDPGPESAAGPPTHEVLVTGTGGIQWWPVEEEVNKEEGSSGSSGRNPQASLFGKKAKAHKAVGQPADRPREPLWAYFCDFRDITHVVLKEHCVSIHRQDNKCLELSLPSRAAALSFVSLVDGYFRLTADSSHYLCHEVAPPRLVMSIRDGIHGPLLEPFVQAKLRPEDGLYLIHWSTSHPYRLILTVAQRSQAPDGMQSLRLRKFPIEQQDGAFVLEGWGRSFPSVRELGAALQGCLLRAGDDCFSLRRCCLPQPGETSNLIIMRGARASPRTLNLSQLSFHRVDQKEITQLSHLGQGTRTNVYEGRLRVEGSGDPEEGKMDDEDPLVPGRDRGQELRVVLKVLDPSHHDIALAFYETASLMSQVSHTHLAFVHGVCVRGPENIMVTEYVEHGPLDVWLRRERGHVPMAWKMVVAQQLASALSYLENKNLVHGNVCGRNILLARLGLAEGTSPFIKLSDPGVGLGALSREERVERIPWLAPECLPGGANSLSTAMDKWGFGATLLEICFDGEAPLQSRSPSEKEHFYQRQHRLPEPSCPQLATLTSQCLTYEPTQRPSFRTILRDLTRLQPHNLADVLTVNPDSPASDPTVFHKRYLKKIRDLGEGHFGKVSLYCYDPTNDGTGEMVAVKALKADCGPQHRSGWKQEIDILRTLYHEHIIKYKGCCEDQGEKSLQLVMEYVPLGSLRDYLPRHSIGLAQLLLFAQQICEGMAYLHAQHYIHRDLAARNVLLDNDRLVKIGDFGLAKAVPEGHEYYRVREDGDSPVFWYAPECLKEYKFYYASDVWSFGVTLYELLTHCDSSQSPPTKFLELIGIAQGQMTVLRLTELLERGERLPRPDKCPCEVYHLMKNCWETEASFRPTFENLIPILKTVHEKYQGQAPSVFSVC
Assay [4] addresses JAK2 (Homo sapiens (Human), UniProt O60674). As to the kind of experiment: JAK Caliper Enzyme Assay at 1 mM ATP (JAK2). The procedure:
as §1, §2, §3

Counter-ions that a name gives are not always drawn.

Usually IC50 stands for the midpoint of a concentration-inhibition curve. High values mean a need for much substance, low ones inhibition by little substance.

Sequence of JAK2 (O60674 whole entry, species assumed): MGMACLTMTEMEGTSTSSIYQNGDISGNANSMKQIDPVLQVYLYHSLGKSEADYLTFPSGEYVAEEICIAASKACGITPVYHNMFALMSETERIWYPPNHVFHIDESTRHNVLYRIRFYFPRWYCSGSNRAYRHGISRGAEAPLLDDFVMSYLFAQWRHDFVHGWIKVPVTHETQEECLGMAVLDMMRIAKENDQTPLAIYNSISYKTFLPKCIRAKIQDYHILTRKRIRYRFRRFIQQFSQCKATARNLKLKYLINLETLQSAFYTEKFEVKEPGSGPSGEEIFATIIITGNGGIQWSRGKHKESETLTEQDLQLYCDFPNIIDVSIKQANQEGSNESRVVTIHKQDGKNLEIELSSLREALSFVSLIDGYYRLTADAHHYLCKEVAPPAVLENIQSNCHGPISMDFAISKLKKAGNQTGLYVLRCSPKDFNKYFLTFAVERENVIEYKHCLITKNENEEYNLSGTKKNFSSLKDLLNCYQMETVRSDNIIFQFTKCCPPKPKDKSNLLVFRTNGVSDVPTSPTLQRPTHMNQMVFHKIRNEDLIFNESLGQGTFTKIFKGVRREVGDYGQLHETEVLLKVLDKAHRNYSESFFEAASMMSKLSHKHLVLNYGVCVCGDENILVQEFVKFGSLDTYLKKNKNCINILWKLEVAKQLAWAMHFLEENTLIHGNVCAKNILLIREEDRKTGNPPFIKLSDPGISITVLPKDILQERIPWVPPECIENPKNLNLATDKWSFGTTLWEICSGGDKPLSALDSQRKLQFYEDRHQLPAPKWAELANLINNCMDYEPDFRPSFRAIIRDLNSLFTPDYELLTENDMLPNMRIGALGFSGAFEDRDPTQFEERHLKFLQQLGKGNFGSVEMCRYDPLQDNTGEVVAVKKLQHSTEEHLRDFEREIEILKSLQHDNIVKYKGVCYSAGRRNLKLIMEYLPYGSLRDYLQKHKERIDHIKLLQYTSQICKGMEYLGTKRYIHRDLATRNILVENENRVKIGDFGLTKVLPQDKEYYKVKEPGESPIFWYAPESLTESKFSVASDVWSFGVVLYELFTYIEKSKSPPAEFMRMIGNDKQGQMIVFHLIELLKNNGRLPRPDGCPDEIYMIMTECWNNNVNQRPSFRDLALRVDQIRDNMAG
Sequence of JAK3 (P52333 whole entry, species assumed): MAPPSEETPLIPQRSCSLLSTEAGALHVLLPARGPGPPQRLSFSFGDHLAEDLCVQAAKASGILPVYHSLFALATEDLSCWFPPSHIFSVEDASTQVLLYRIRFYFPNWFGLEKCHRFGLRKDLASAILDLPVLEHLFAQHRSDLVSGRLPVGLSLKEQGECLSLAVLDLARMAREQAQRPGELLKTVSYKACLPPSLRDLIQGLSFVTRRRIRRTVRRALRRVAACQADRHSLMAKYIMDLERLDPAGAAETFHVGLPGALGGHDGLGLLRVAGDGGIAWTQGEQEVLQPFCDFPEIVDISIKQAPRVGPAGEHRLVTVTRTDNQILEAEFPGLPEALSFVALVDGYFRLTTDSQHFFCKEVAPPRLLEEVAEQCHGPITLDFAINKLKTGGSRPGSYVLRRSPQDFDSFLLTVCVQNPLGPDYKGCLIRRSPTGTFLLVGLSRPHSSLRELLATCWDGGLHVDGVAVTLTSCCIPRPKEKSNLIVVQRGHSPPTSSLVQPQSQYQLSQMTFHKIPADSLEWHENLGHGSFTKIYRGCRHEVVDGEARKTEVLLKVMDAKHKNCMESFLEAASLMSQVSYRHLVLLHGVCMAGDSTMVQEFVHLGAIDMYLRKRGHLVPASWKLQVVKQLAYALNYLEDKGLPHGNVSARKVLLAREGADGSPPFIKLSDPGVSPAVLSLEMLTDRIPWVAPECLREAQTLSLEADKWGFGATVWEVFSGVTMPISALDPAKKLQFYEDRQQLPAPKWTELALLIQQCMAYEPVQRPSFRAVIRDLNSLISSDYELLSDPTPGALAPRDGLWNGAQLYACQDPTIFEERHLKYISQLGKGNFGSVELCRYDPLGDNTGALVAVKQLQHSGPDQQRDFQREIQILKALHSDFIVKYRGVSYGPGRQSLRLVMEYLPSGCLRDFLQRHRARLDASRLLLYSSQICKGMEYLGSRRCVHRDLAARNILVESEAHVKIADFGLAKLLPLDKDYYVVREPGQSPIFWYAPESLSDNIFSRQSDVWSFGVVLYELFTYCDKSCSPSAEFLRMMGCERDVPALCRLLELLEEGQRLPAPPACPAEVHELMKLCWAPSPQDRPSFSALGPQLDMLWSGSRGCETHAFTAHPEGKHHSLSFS
Sequence of JAK1 (P23458 whole entry, species assumed): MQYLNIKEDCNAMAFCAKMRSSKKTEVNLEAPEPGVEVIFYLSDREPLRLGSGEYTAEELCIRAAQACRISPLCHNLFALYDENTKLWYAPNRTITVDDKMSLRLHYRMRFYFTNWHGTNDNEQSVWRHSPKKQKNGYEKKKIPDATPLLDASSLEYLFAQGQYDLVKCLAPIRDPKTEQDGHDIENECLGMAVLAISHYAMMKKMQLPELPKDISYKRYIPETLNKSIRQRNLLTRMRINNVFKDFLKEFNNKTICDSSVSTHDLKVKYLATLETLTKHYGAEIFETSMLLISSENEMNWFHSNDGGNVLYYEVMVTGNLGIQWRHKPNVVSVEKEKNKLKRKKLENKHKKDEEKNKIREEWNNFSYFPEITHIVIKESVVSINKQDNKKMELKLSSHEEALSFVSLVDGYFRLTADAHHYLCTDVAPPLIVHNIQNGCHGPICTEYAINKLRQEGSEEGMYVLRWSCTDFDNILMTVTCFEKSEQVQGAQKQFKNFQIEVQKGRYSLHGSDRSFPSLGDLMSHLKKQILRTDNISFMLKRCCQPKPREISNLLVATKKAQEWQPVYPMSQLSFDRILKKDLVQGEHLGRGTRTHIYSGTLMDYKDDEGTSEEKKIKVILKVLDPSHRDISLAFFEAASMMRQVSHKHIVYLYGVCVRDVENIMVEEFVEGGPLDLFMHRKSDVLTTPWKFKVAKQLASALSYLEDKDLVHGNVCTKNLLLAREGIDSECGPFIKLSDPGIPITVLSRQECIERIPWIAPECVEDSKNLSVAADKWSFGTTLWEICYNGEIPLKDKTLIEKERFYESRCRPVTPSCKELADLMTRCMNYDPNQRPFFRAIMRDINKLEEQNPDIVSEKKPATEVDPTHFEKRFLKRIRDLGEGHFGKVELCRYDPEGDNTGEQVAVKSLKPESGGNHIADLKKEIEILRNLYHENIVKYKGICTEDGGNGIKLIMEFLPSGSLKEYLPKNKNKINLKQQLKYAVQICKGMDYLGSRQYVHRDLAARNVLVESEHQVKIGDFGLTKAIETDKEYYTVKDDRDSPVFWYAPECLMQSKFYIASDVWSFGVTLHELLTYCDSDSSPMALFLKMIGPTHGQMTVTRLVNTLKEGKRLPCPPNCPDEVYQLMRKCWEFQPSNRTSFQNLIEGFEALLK

Take `CNC(=O)c1n[nH]c2cc(-c3cc(F)c(O)cc3CC(F)(F)F)nc(NCc3nccnc3N(C)S(=O)(=O)c3ccccc3)c12` [Example 44, 6-[5-fluoro-4-hydroxy-2-(2,2,2-trifluoroethyl)phenyl]-N-methyl-4-[({3-[methyl(phenylsulfonyl)amino]pyrazin-2-yl}methyl)amino]-1H-pyrazolo[4,3-c]pyridine-3-carboxamide]: the IC50 in assay [1] came to 25.8 nM; in assay [2], 293 nM; in assay [3], 999 nM.

`CNC(=O)c1n[nH]c2cc(-c3cc(F)c(O)cc3CC(F)(F)F)nc(NCc3cccnc3N(C)S(C)(=O)=O)c12` [Example 53, 6-[5-fluoro-4-hydroxy-2-(2,2,2-trifluoroethyl)phenyl]-N-methyl-4-[({2-[methyl(methylsulfonyl)amino]pyridin-3-yl}methyl)amino]-1H-pyrazolo[4,3-c]pyridine-3-carboxamide]: the IC50 in assay [1] was determined as 9.7 nM; in assay [2], 102 nM; in assay [3], 243 nM.

`Oc1cc(CC(F)(F)F)c(-c2nc(NCCC3CC3)c3cn[nH]c3n2)cc1F` [Example 152, 4-{4-[(2-cyclopropylethyl)amino]-1H-pyrazolo[3,4-d]pyrimidin-6-yl}-2-fluoro-5-(2,2,2-trifluoroethyl)phenol]: the IC50 in assay [1] amounted to 41.6 nM; in assay [4] it was 228 nM; in assay [2], 157 nM.

Regarding `CCc1cc(O)c(F)cc1-c1cc2[nH]ncc2c(N(CCN2CCOCC2)Cc2ccccc2N(C)S(C)(=O)=O)n1` [Example 140, N-[2-({[6-(2-ethyl-5-fluoro-4-hydroxyphenyl)-1H-pyrazolo[4,3-c]pyridin-4-yl][2-(morpholin-4-yl)ethyl]amino}methyl)phenyl]-N-methylmethanesulfonamide], the IC50 in assay [1] amounted to 18.1 nM; in assay [4], 53.5 nM; in assay [2], 131 nM.

As for `CNC(=O)c1n[nH]c2cc(-c3cc(F)c(O)cc3CC(F)(F)F)nc(NCc3cnccc3N(C)S(C)(=O)=O)c12` [Example 48, 6-[5-fluoro-4-hydroxy-2-(2,2,2-trifluoroethyl)phenyl]-N-methyl-4-[({4-[methyl(methylsulfonyl)amino]pyridin-3-yl}methyl)amino]-1H-pyrazolo[4,3-c]pyridine-3-carboxamide], the IC50 was 67.6 nM in assay [1], 188 nM in assay [4] and 148 nM in assay [2].

Turning to “N-benzyl-2-[6-(2-ethyl-4-hydroxyphenyl)-1H-pyrazolo[4,3-c]pyridin-4-yl]-1,2,3,4-tetrahydroiso-quinoline-5-carboxamide formate [Example 117]”, the IC50 was found to be 41.6 nM in assay [2] and 425 nM in assay [3].

Regarding `CNC(=O)c1n[nH]c2cc(-c3cc(F)c(O)cc3C3CC3)nc(NCc3ccccc3N(C)S(C)(=O)=O)c12` [Example 37, 6-(2-cyclopropyl-5-fluoro-4-hydroxyphenyl)-N-methyl-4-({2-[methyl(methyl-sulfonyl)amino]benzyl}amino)-1H-pyrazolo[4,3-c]pyridine-3-carboxamide], the values for the IC50 in assay [1], in assay [2] and in assay [3] were 5 nM, 52 nM and 169 nM, respectively.

Consider `CCc1cc(O)c(F)cc1-c1cc2[nH]nc(C(=O)NC)c2c(NCCc2ccc(O)cc2)n1` [Example 4, 6-(2-ethyl-5-fluoro-4-hydroxyphenyl)-4-{[2-(4-hydroxyphenyl)ethyl]amino}-N-methyl-1H-pyrazolo[4,3-c]pyridine-3-carboxamide], for which the IC50 in assay [1] was found to be 1.7 nM; in assay [2] it was 26.6 nM; in assay [3], 15.3 nM.

On to `CCc1cc(O)c(F)cc1-c1cc2[nH]nc(C(=O)NC)c2c(NCc2ccc(O)cc2N(C)S(C)(=O)=O)n1` [Example 29, 6-(2-Ethyl-5-fluoro-4-hydroxyphenyl)-4-({4-hydroxy-2-[methyl(methylsulfonyl)amino]benzyl}amino)-N-methyl-1H-pyrazolo[4,3-c]pyridine-3-carboxamide], for which the IC50 was 1.5 nM in assay [1], 33.2 nM in assay [2] and 19 nM in assay [3].

In the case of `CS(=O)(=O)N(CCO)c1ccccc1CNc1nc(-c2cc(F)c(O)cc2CC(F)(F)F)nc2[nH]nc(C(N)=O)c12` [Example 101, 6-(5-fluoro-4-hydroxy-2-(2,2,2-trifluoroethyl)phenyl)-4-((2-(N-(2-hydroxyethyl)methylsulfonamido)benzyl)amino)-1H-pyrazolo[3,4-d]pyrimidine-3-carboxamide], the IC50 in assay [1] worked out at 10.5 nM; in assay [2], 51.1 nM.

For `CCc1cc(O)ccc1-c1cc2[nH]ncc2c(NCc2ccccc2N(C)S(C)(=O)=O)n1` [Example 125, N-[2-({[6-(2-Ethyl-4-hydroxyphenyl)-1H-pyrazolo[4,3-c]pyridin-4-yl]amino}methyl)phenyl]-N-methylmethanesulfonamide hydrochloride], the IC50 in assay [1] was 0.2 nM; in assay [2] it was 4.4 nM; in assay [3] it was 5.6 nM.

In the case of `CN(c1ccc(O)cc1CNc1nc(-c2cc(F)c(O)cc2CC(F)(F)F)nc2[nH]nc(-c3nnc(C4CCN(C(N)=O)CC4)[nH]3)c12)S(C)(=O)=O` [Example 167, 4-(5-{6-[5-Fluoro-4-hydroxy-2-(2,2,2-trifluoroethyl)phenyl]-4-({5-hydroxy-2-[methyl(methylsulfonyl)amino]benzyl}amino)-1H-pyrazolo[3,4-d]pyrimidin-3-yl}-4H-1,2,4-triazol-3-yl)piperidine-1-carboxamide], the results for the IC50 in assay [1], in assay [2] and in assay [3] were 4.1 nM, 47.4 nM and 310 nM, respectively.

Turning to `CNC(=O)c1n[nH]c2cc(-c3cc(F)c(O)cc3CC(F)(F)F)nc(NCc3ccccc3CS(N)(=O)=O)c12` [Example 64, 6-[5-fluoro-4-hydroxy-2-(2,2,2-trifluoroethyl)phenyl]-N-methyl-4-{[2-(sulfamoylmethyl)benzyl]amino}-1H-pyrazolo[4,3-c]pyridine-3-carboxamide], the values for the concentration for half-maximal inhibition (IC50) in assay [1], in assay [2] and in assay [3] were 3.3 nM, 36.9 nM and 153 nM, respectively.

On to `CCCCNc1nc(-c2cc(F)c(O)cc2CC(F)(F)F)nc2[nH]ncc12` [Example 154, 4-[4-(butylamino)-1H-pyrazolo[3,4-d]pyrimidin-6-yl]-2-fluoro-5-(2,2,2-trifluoroethyl)phenol], for which the values for the IC50 in assay [1], in assay [2] and in assay [3] were 77.6 nM, 228 nM and 5140 nM, respectively.

For the compound `CN(c1ccccc1CNc1nc(-c2cc(F)c(O)cc2CC(F)(F)F)nc2[nH]nc(C(N)=O)c12)S(C)(=O)=O` [Example 98, 6-(5-Fluoro-4-hydroxy-2-(2,2,2-trifluoroethyl)phenyl)-4-((2-(N-methylmethylsulfonamido)benzyl)amino)-1H-pyrazolo[3,4-d]pyrimidine-3-carboxamide], the IC50 stood at 4.9 nM in assay [1], 39.6 nM in assay [2] and 600 nM in assay [3].

With `CN(c1ccc(O)cc1CNc1nc(-c2cc(F)c(O)cc2CC(F)(F)F)cc2[nH]nc(C(N)=O)c12)S(=O)(=O)c1ccccc1` [Example 42, 6-[5-fluoro-4-hydroxy-2-(2,2,2-trifluoroethyl)phenyl]-4-({5-hydroxy-2-[methyl(phenylsulfonyl)-amino]benzyl}amino)-1H-pyrazolo[4,3-c]pyridine-3-carboxamide], the IC50 in assay [1] came out at 25.3 nM; in assay [2], 534 nM; in assay [3], 233 nM.

As for `Oc1cc(CC(F)(F)F)c(-c2nc(NCC3CC3)c3cn[nH]c3n2)cc1F` [Example 151, 4-{4-[(cyclopropylmethyl)-amino]-1H-pyrazolo[3,4-d]pyrimidin-6-yl}-2-fluoro-5-(2,2,2-trifluoroethyl)phenol], the IC50 in assay [1] was determined as 33.9 nM; in assay [2] it was 125 nM; in assay [3], 2980 nM.

As for `Cc1ccc(N(C)S(C)(=O)=O)c(CNc2nc(-c3cc(F)c(O)cc3CC(F)(F)F)cc3[nH]nc(C(N)=O)c23)c1` [Example 81, 6-[5-fluoro-4-hydroxy-2-(2,2,2-trifluoroethyl)phenyl]-4-({5-methyl-2-[methyl(methylsulfonyl)-amino]benzyl}amino)-1H-pyrazolo[4,3-c]pyridine-3-carboxamide], the IC50 in assay [1] was 4.7 nM; in assay [2], 103 nM; in assay [3], 298 nM.

For `CCc1cc(O)c(F)cc1-c1cc2[nH]ncc2c(N(CCc2ccc(OC)c(OC)c2)Cc2ccccc2N(C)S(C)(=O)=O)n1` [Example 129, N-[2-({[2-(3,4-dimethoxyphenyl)ethyl][6-(2-ethyl-5-fluoro-4-hydroxyphenyl)-1H-pyrazolo[4,3-c]pyridin-4-yl]amino}methyl)phenyl]-N-methylmethanesulfonamide hydrochloride], the IC50 in assay [1] was 11.6 nM; in assay [2], 180 nM; in assay [3] it was 56.6 nM.

For `CCN(c1ccccc1CNc1nc(-c2cc(F)c(O)cc2CC(F)(F)F)cc2[nH]nc(C(N)=O)c12)S(=O)(=O)CC` [Example 82, 4-((2-(N-ethylethylsulfonamido)benzyl)amino)-6-(5-fluoro-4-hydroxy-2-(2,2,2-trifluoroethyl)phenyl)-1H-pyrazolo[4,3-c]pyridine-3-carboxamide], the IC50 was 13.7 nM in assay [1], 313 nM in assay [2] and 121 nM in assay [3].

Values taken from patent US9518052B2, “Pyrazolopyridines and pyrazolopyrimidines” (Pfizer Inc., priority 2014, dated 2016).
